Test results from US8975259B2, “Compositions and methods for inhibiting G protein signaling” (University of Rochester, priority 2007, dated 2015).
Where two headings read alike, the source gives them in different places.

Target: Gβ1γ2 (UniProt P54311+P63212)
Assay: Competition phage ELISA: inhibition of SIGK-phage binding to immobilized biotinylated Gβ1γ2
Design: made in house; host or cells: Sf9 insect cells (baculovirus; co-expressed with BirA and (His)6-Gαi1, from which βγ was eluted); species or system rat
Conditions: for binding to the G protein β subunit: result in words
Method: Phage ELISA assays used to assess peptide binding to wild-type and mutant b-βγ were performed according to standard methods (Smrcka and Scott (2002) Methods Enzymol. 344:557-76). Briefly, 1 μg streptavidin was immobilized in the well of a […] overnight at 4° C. The wells were blocked with 100 μL of 2% bovine serum albumin (BSA) in Tris-buffered saline (TBS) for 1 hour at 4° C. followed by three washes of IX TBS/0.5% TWEEN®. […] The wells were washed, followed by the addition of IxIO^6 to IxIO^10 phage particles and incubated at 4° C. for 3 hours. The wells were then washed six times with TBS/0.5% TWEEN® followed by addition of 40 μL of 1:5000 dilution of anti-M13 antibody (Pharmacia, Uppsala, Sweden) and incubated at room temperature for 1 hour. The wells were washed, followed by the addition of 40 μL of (2,2′-Azino-bis (3-ethylbenzthiazoline)-6-sulfonic acid (ABTS) and the colorimetric reaction was monitored at 405 nm. Nonspecific binding was subtracted for each reading.
A phage ELISA assay was used to determine whether small molecules identified in the computational screen could interact with the Gβy protein interaction surface. […] The screen was based on a reduction in the optical density (OD) of wells containing Gβγ subunits and phage. […] Three background wells contained no βy subunits.
As disclosed herein, biotinylated Gβy subunits were immobilized on the surface of a 96-well plate coated with streptavidin, phage displaying Gβγ-binding peptides were subsequently added and binding in the presence and absence of test compounds detected with an anti-phage antibody.
The phage ELISA assay was used to rapidly screen the ability of compounds to bind to the protein interaction “hot spot” based on the method of Scott et. al (Scott et al., 2001). This assay is performed in the presence of detergent (0.5% Tween) to eliminate non-specific compound aggregation artifacts.
Compounds/DMSO and 0.1×10^10 phage were added simultaneously and subsequently incubated for 1 h at room temperature. Plates were then washed with 1× Tris-buffered saline/0.5% Tween 20 and incubated with anti-M13, HRP-conjugated antibody (Amersham, Chalfont St. Giles, Buckinghamshire, UK). Phage binding was determined by monitoring A405 upon addition of 2,2′-azino-bis(3-ethylbenzothiazoline-6-sulfonic acid) (Sigma Aldrich).

[1] = kind of constant not stated, read-out: binding to the G protein β subunit

CNc1ccc(Nc2cc(S(=O)(=O)O)c(N)c3c2C(=O)c2ccccc2C3=O)cc1
IC50 (Table 2, read-out: Elisa IC50): 59000 nM

CC1C2C=CC1C(c1c3ccc(=O)c(O)c-3oc3c(O)c(O)ccc13)C2C(=O)O (stereo not drawn)
IC50 (Table 6): 700 nM

O=C(O)C1CC23C(Cl)C(Cl)C(Cl)C(Cl)C2(CC1c1c2ccc(=O)c(O)c-2oc2c(O)c(O)ccc12)C3(Cl)Cl (stereo not drawn)
IC50 (Table 6): 200 nM

O=C(O)c1ccccc1-c1c2ccc(=O)c(O)c-2oc2c(O)c(O)ccc12
IC50 (Table 6): 200 nM

O=C1C=CC2C(=C1O)Oc1c(ccc(O)c1O)/C2=C\C=C(O)O (stereo not drawn)
IC50 (Table 6): 200 nM

Cc1cc(N)c2cc(CC(=O)C(C)(C)C(=O)Nc3ccc4nc(C)cc(N)c4c3)ccc2n1
IC50 (Table 7, read-out: ELISA IC50): 74000 nM

Ic1ccc2c(c1)N(c1ccccc1)c1cc(Nc3ccc4c(c3)N(c3ccccc3)c3cc(I)ccc3N4)ccc1N2
IC50 (Table 7, read-out: ELISA IC50): 2000 nM

7-methyl-3-(4,5,6-trihydroxy-3-oxo-3H-xanthen-9-yl)bicyclo[2.2.1]hept-5-ene-2-carboxylic acid
IC50 (kind of constant not stated, read-out: binding to the protein interaction site of the β subunit of a G protein): 700 nM

Cc1c2cc(O)c(=O)cc-2oc2cc(O)c(O)cc12 [2,6,7-trihydroxy-9-methyl-3H-xanthen-3-one]
binding to the G protein β subunit: did not provide a compound that exhibited binding

O=C(O)CCc1c2ccc(=O)c(O)c-2oc2c(O)c(O)ccc12 [3-(4,5,6-trihydroxy-3-oxo-3H-xanthen-9-ylpropanoic acid]
IC50 [1]: 2500 nM

O=C(O)CCc1c2ccc(=O)cc-2oc2cc(O)ccc12 [3-(6-hydroxy-3-oxo-3H-xanthen-9-yl)propionic acid]
binding to the G protein β subunit: Neither of these compounds showed any binding

O=C(O)C1C2C=CC(C2)C1c1c2ccc(=O)cc-2oc2cc(O)ccc12 (stereo not drawn) [3-(6-hydroxy-3-oxo-3H-xanthen-9yl)bicyclo[2.2.1]hept-5-ene-2-carboxylic acid]
IC50 [1]: 14000 nM
